Results taken from patent US10350220B2, “Methods and materials for reducing suppression of immune function” (Mayo Foundation for Medical Education and Research, priority 2011, dated 2019).

System: CD14+ cells co-cultured with a renal cell tumor line (ACHN)
Experiment: HLA-DR expression of isolated CD14+ cells co-cultured with ACHN renal cell tumor line, flow cytometry
Conditions: CD14+ cells exposed to ACHN cancer cells, RU486 5 or 20 μM added day 0; compared with cells exposed to cancer cells and not treated

SMILES: CC#C[C@]1(O)CC[C@H]2[C@@H]3CCC4=CC(=O)CCC4=C3[C@@H](c3ccc(N(C)C)cc3)C[C@@]21C [RU486, mifepristone]
- HLA-DR expression (MFI of HLA-DR staining, FIG. 1): more HLA-DR expression than cells exposed to cancer cells and not treated with RU486
